Data taken from patent US8318743B2, “Medicament for the enhancement of cognitive function and neuroprotection” (Egis Gyogyszergyar Nyilvanosan Mukodo Reszvenytarsasag, priority 2006, dated 2012).
Marks after values point to notes of the source that are not given here.

Tests used:
[1] = test system: rats; assay: object recognition test; type: in vivo, rat
Excerpt: The object recognition test in rats is based on the observation that when animals are encountered with unknown environment, they scour around and discover the available area. They act similarly in case of unknown objects arranged within their area.
In the present experimental arrangement, one day prior to the actual testing day, animals are placed in a box where they have two minutes to get acquainted with the surroundings. On the first day of the experiment, two identical objects (in the present arrangement, a plastic rinse bottle and a glass bottle) are placed in the box and the length of the period is determined during which the animals spend time while examining the two objects. The length of test period is 4-5 minutes. The difference between the length of the time periods spent with the examination of each object is the so-called discrimination index.
On the second day (24 hours after the first testing period) of the experiment, two different objects are placed in the box, among which one is known for the animals and the other is unknown.
In the case when a memory-enhancing drug is administered to the animals on the first day (e.g. orally, 60 minutes prior to testing), the animals are able to recall the already known objects better and the discrimination index is increased in favour of the unknown object.

[2] = test system: male Wistar rats; assay: passive avoidance test (step-through); type: in vivo, rat; conditions: for effect on memory in passive avoidance: 0.005 mg/kg p.o.
Experimental: The passive avoidance tests were carried out in male Wistar rats weighing 200 to 220 g (Charles River, Budapest). The experimental animals were kept in a room having a circadian light-dark periods of 12-12 hours. The light was switched on at 6:00 am. The relative humidity of the room was 60±10%.
The tests were carried out in a so-called step-through type apparatus with five channels which is suitable for testing of passive avoidance learning.
The apparatus comprises two plexiglass boxes of 20×20×16 cm. One of the boxes is clear, the other one is non-transparent, black-painted. There exists a separating wall between the boxes having an opening of 7.5×8 cm. The opening can be opened or closed by a computer-controlled shutter door. The transition of the rat from one box into the other is detected by two parallel photocell rows and the door is automatically shut after the transition of the animal. The floor of the black-painted box consists of stainless steel rods equipped with an electrical circuit suitable for the delivery of an electric shock. There is a 10-W bulb above the door at the light (transparent) side of the apparatus.
The tests were carried out on two subsequent days with a 24-hour time difference.
The first part of the test is the so-called acquisition period, wherein the animal is able to gain specific information characteristic to the situation (upon entry into the dark box, an electric shock is delivered). The second part of the test is the so-called retention period. In this stage, the ability of the animal to remember the information which was collected in the first part is tested (upon entry into the dark part, an electric shock will be delivered, therefore it is less traumatic to stay in the light compartment).
On the first day of the testing (acquisition period), the numbered animals are placed into the clear compartment of the apparatus while the shutter door is closed. After 30 seconds, the door is opened and the animal could freely enter the dark box. At the same time, the clock for the measurement of the transition latency was started. The transition latency is the period of time which elapses between the opening of the shutter door and the transition of the animal from the light compartment into the dark one. When the animal entered the dark box, the clock measuring the latency is stopped. 3 seconds after the entry into the dark compartment, an electric shock of 0.4 mA is delivered for 10 seconds to the animals in the form of a paw shock. Animals belonging to the absolute control groups were not delivered a paw shock. After the electric shock, the animals were immediately removed from the apparatus. A 180-sec period was available for the animals to enter the dark compartment. […] This is the essence of acquisition.
During the second-day test (retention) after 24 hours, the animals were placed into the apparatus again. The subsequent part of the procedure was identical to that performed on the first day with the only difference that except for one group, no electric shock was delivered to the animals. Similarly to the first day, 180 sec was provided for the animals to enter the dark box.
During the tests directed to the determination of the effect of 4-chloro-5-{2-[4-(6-fluoro-1,2-benz[d]isoxazole-3-yl)piperidin-1-yl]ethyl-amino}-2-methyl-3-(2H)pyridazinone of the Formula (I), the experimental animals were treated with the test substance and the reference substance or with vehicle (0.4% methylcellulose) on the second day, 60 minutes before placing the animals into the apparatus. The treatment was carried out orally at a dose of 0.005 mg/kg in a volume of 5 ml/kg.
The statistical evaluation was carried out with multiple way variance analysis. The differences between groups were analyzed by Duncan-test.

[3] = test system: male gerbils; assay: global cerebral ischemia model by bilateral carotid artery occlusion, hippocampal CA1 neuronal damage; type: in vivo, gerbil; conditions: for proportion of the neuronal damage in CA1 region of the hippocampus / Effect %: 0.1 mg/kg ip.; for CA 1 lesion: 0.1 mg/kg ip. 45 minutes after surgery, average score on scale 0-6, four days after 3 min bilateral carotid occlusion; for Effect %: CA1 lesion score versus control animals
Experimental: The neuroprotective effect of 4-chloro-5-{2-[4-(6-fluoro-1,2-benz[d]isoxazole-3-yl)piperidin-1-yl]ethyl-amino}-2-methyl-3-(2H)pyridazinone of the Formula (I) was tested in gerbils by global cerebral ischemia model by bilateral occlusion of the carotid artery and in rats by focal cerebral ischemia model via the permanent occlusion of the central cerebral artery. Risperidone[3-(2-(4-(6-fluoro-1,2-benz[d]isoxazole-3-yl)-1-piperidinyl)ethyl)-6,7,8,9-tetrahydro-2-methyl-4H-pyrido[1,2-a]pyrimidin-4-one] of the Formula (II) was used as reference compound.
The tests in the global cerebral ischemia model were performed in male gerbils weighing 50-80 g. During surgery, the animals were anaesthetized with ether, and the carotid arteries were set free in the paratracheal region by a ventral incision in the central region. The carotid arteries were separated from the vagosympatic nerve-trunk and were occluded for 3 minutes using artery forceps and subsequently released. The body temperature of the animals was checked during surgery and was kept in the normal range using an infrared lamp (37.5±0.5° C.). The test substance 4-chloro-5-{2-[4-(6-fluoro-1,2-benz[d]isoxazole-3-yl)piperidin-1-yl]ethyl-amino}-2-methyl-3-(2H)pyridazinone of the Formula (I) and the reference substance risperidone of the Formula (II) were administered in a dose of 0.1 mg/kg intraperitoneally 45 minutes after surgery.
Four days after surgery, animals were anaesthetised using pentobarbital-Na (60 mg/kg ip., 10 ml/kg) and the brains were perfused with saline thorough the left ventricle. The perfusion was continued for an additional 30 minutes using fixative solution (200 ml/animal). The fixative solution contained 0.1% of glutaraldehyde, 4% of paraformaldehyde and 0.2% of picric acid in 0.1 M phosphate buffer (pH 7.4). After perfusion, the brains were removed from the skulls and were stored in the above-mentioned fixative solution for at least one week at 4° C. in a refrigerator.
The cerebral part containing the dorsal hippocampus has been dissected into 60-μm thick coronal sections using a freezing microtome. The sections were washed four times by shaking for 30 minutes in 0.1 M phosphate buffer (pH 7.4) during which the cerebral sections were floating in the washing solution. Subsequently the cerebral sections were stained using silver impregnation. The staining by the silver impregnation method comprises (a) immersing the sample into a preparatory solution twice for 5 minutes (the preparatory solution comprises aqueous 2% sodium hydroxide and 0.875% ammonium hydroxide solution); (b) immersing the sample into the impregnating solution for 10 minutes (solution of 0.875% ammonium hydroxide and 0.5% silver nitrate in water), (c) washing the sample twice for 2 minutes and finally for one minute in the solution of 0.5% of sodium carbonate and 0.01% ammonium nitrate in aqueous 29.1% ethanol); (d) development for one minute by immersing the section into a development solution (1-1.5% formaldehyde and 0.01% ammonium nitrate in 9.9% ethanol), (e) fixation three times for three minutes each in 0.5% acetic acid solution. The stained cerebral sections were placed into 0.1 M phosphate buffer (pH 7.4) and subsequently chromic gelatine, mounted on slides and dehydrated (dried), treated with xylene for 10 minutes and the cover plates were attached using DPX histological adhesive (Fluka).
The bilateral neuronal damage in the CAl region of the hippocampus have been evaluated on a six-score scale as follows: 0—no damage observed; 1—0-10% neuronal damage; 2—10-30% neuronal damage; 3—30-50% neuronal damage; 4—50-70% neuronal damage; 5—70-90% neuronal damage; 6—90-100% neuronal damage. The average scores measured in the treated group were expressed in the percentage of the average scores observed in the case of the control animals. The statistical evaluation was carried out by non-parametric Mann-Whitney U-test.

[4] = 0.4 mA/10 sec electric shock + treatment 0.005 mg/kg p.o. 60 minutes before test
[5] = treatment 0.005 mg/kg p.o. without electric shock

SMILES | memory functions in object recognition ([1]; 0.01 mg/kg) | Discrimination index(s) Day 1 ([1]; 0.01 mg/kg p.o., Day 1) | Discrimination index(s) Day 2 ([1]; 0.01 mg/kg p.o., Day 2 (24 hours after first testing)) | effect on memory in passive avoidance [2] | Transition latency First Day sec ± SE [2, 4] | Transition latency First Day sec ± SE [2, 5] | proportion of the neuronal damage in CA1 region of the hippocampus [3] | CA 1 lesion [3] | Effect % [3]
Cn1ncc(NCCN2CCC(c3noc4cc(F)ccc34)CC2)c(Cl)c1=O [Formula (I), 4-chloro-5-{2-[4-(6-fluoro-1,2-benz[d]isoxazole-3-yl)piperidine-1-yl]ethyl-amino}-2-methyl-3-(2H)pyridazinone] | significantly enhanced | 0.4 ± 0.8 s | 10.9 ± 1.4 s | significantly improved the memory | 155.9 ± 15.5^++ sec | 21.2 ± 8.8 s | significantly decreased | 2.80** | −46%
Cc1nc2n(c(=O)c1CCN1CCC(c3noc4cc(F)ccc34)CC1)CCCC2 [Risperidone, 3-(2-(4-(6-fluoro-1,2-benz[d]isoxazole-3-yl)-1-piperidinyl)-ethyl)-6,7,8,9-tetrahydro-2-methyl-4H-pyrido[1,2-a]pyrimidin-4-one, reference compound] | – | – | – | did not exhibit any effect | 85.5 ± 22.0 s | 36.1 ± 15.9 s | ineffective | 4.67 | −2%
